Laboratory results: patent US12396971B2, “Administration of beta-hydroxybutyrate and related compounds in humans for the treatment and/or prevention of respiratory illnesses” (AXCESS GLOBAL SCIENCES, LLC, priority 2020, dated 2025)

Legend:
Format in all cases: in vivo, humans
[1] = system: respiratory illness, COVID-19; experiment: Cardiovascular endurance, standard 15 minute cycling test over 4 days; settings: 10 g vs not administered, FIG. 3
Description: (§1) A composition comprising 10 g of R-beta-hydroxybutyrate was administered to individuals twice a day. […] The patients were tested and monitored to determine the impact of administration of beta-hydroxybutyrate on the illness progression and recovery. Administration of the beta-hydroxybutyrate reduced the number of symptoms and the severity of symptoms. […] Since quicker returns to normal values may indicate less chances for long-term continuance of viral respiratory illnesses (e.g., long-haul or long-term Covid-19), administration of beta-hydroxybutyrate may be associated with decreased potential for long-term continuance of symptoms.
FIG. 3 graphically illustrates endurance capacity monitoring in individuals over 4 days for individuals administered 10 g of R-beta-hydroxybutyrate and not administered 10 g of R-beta-hydroxybutyrate. Cardiovascular endurance was measured using a standard 15 minute cycling test and is illustrated in FIG. 3 as a percentage of normal.

[2] = system: respiratory illness, COVID-19; experiment: Lung function (FEV) measurements over 4 days; settings: FIG. 2
Description: as §1
FIG. 2 graphically illustrates lung function measurements over 4 days for individuals administered 10 g of R-beta-hydroxybutyrate and not administered 10 g of R-beta-hydroxybutyrate. […] As illustrated, improvement in FEV plateaued when beta-hydroxybutyrate was not administered while it continued to improve when R-beta-hydroxybutyrate was administered. Reduction in the chances of plateauing lung function (e.g., at reduced levels) may decrease potential for long-term continuance of symptoms such as those found in long term or long-haul COVID-19 sufferers (e.g., individuals who had COVID-19 and continue to present with symptoms 4 or more weeks after infection).

[3] = system: respiratory illness, COVID-19; experiment: Symptoms and recovery monitoring in individuals with COVID-19 administered R-beta-hydroxybutyrate; settings: composition comprising 10 g twice a day
Description: as §1

[4] = system: respiratory illness, COVID-19; experiment: Cough severity by Cough Severity Visual Analogue Scale over 4 days; settings: 10 g, orally, vs not administered, FIG. 1
Description: as §1
FIG. 1 graphically illustrates cough measured over 4 days for individuals administrated 10 g of R-beta-hydroxybutyrate and not administered 10 g of R-beta-hydroxybutyrate. Cough severity was measured using the Cough Severity Visual Analogue Scale. As illustrated, cough severity was lower with administration of 10 g of R-beta-hydroxybutyrate. Furthermore, cough severity was not as high when beta-hydroxybutyrate was orally administered.

C[C@@H](O)CC(=O)O [R-beta-hydroxybutyrate, (R)-3-Hydroxybutyric acid]
cardiovascular endurance as a percentage of normal [1]: overall better | recovery to normal cardiovascular endurance [1]: quicker recovery to normal | time for lung function to improve to normal ([2]; 10 g vs not administered (FEV plateaued without)): improve to normal more quickly | FEV (as a % of normal FEV) ([2]; 10 g vs not administered): higher overall | number of symptoms [3]: reduced | recovery time [3]: decreased | severity of symptoms [3]: reduced | cough severity (Cough Severity Visual Analogue Scale) [4]: lower
